The values that follow come from article PMC9743092, “Membrane-Active Cyclic Amphiphilic Peptides: Broad-Spectrum Antibacterial Activity Alone and in Combination with Antibiotics” (Journal of Medicinal Chemistry, 2022).

What is called HC50 is the concentration giving 50% haemolysis.

In data set [1] the test system is P. aeruginosa (ATCC 27883). On the set-up: MIC P. aeruginosa: unit not given beside the values. As to conditions: supplementary csv, unit not given.
For data set [2], the system named is human red blood cells (hRBCs). As to conditions: red cells of human, 2 h.
Experimental: The hemolytic activity of all the cyclic peptides was determined using human red blood cells (hRBC) purchased from BioIVT, USA. […] Peptide-induced hemolysis was tested in triplicate by mixing 75 μL of the peptide solution in PBS (two-fold serial dilution) with 75 μL of a 4% (v/v) hRBC suspension in phosphate-buffered saline. The plates were incubated for 2 h at 37 °C without agitation and centrifuged at 1000g for 10 min. Aliquots (100 μL) of the supernatant were transferred to 96-well plates, where hemoglobin release was measured spectrophotometrically at 567 nm. Percent hemolysis was calculated by the following formula: [drawing 1] where A represents the absorbance of the peptide sample at 567 nm and A0 and At represent zero percent and 100% hemolysis determined in phosphate-buffered saline and 1% Triton X-100, respectively.
The subject of a further data set is E. coli (ATCC 25922). On the set-up: MIC E. coli: unit not given beside the values. As to conditions: supplementary csv, unit not given.
In data set [3] the test system is K. pneumoniae (ATCC BAA-1705). As to conditions: supplementary csv, unit not given.
In the next data set the test system is MRSA (ATCC BAA-1556). Set-up: MIC MRSA: unit not given beside the values. As to conditions: supplementary csv, unit not given.

Square brackets hold non-standard residues; d marks the D form. Peptide text beside a SMILES is read from it. Some results are limits rather than exact numbers.

For the molecule `N=C(N)NCCC[C@@H]1NC(=O)[C@H](CCCNC(=N)N)NC(=O)[C@H](Cc2c[nH]c3ccccc23)NC(=O)[C@H](Cc2c[nH]c3ccccc23)NC(=O)[C@H](Cc2c[nH]c3ccccc23)NC1=O` [2a, [R2W3]] (cyclo(RRWWW); ring closure inferred), the “MIC P. aeruginosa” value in data set [1] is on record as 256. This molecule also displayed a concentration for 50% haemolysis (HC50) in data set [2] of 120 µg/mL. The “MIC E. coli” value against E. coli (ATCC 25922) was found to be 256. In data set [3], the “MIC K. pneumoniae” value was found to be 256. Also, in the data set with MRSA (ATCC BAA-1556), the “MIC MRSA” value is reported as 32.

Consider `N=C(N)NCCC[C@@H]1NC(=O)[C@H](CCCNC(=N)N)NC(=O)[C@H](Cc2c[nH]c3ccccc23)NC(=O)[C@H](Cc2c[nH]c3ccccc23)NC(=O)[C@H](Cc2c[nH]c3ccccc23)NC(=O)[C@H](Cc2c[nH]c3ccccc23)NC1=O` [2b, [R2W4]] (cyclo(RRWWWW); ring closure inferred), for which the “MIC P. aeruginosa” value in data set [1] is 256. The molecule also gave an HC50 in data set [2] of 85 µg/mL. Moreover, in the data set with E. coli (ATCC 25922), the “MIC E. coli” value was determined as 256. In data set [3], the “MIC K. pneumoniae” value is given as 256. The “MIC MRSA” value with MRSA (ATCC BAA-1556) came out at 64.

`N=C(N)NCCC[C@@H]1NC(=O)[C@H](CCCNC(=N)N)NC(=O)[C@H](Cc2c[nH]c3ccccc23)NC(=O)[C@H](Cc2c[nH]c3ccccc23)NC(=O)[C@H](Cc2c[nH]c3ccccc23)NC(=O)[C@H](CCCNC(=N)N)NC1=O` [3a, [R3W3]] (cyclo(WWWRRR); ring closure inferred): the “MIC P. aeruginosa” value in data set [1] is 128. The molecule also had an HC50 in data set [2] of 155 µg/mL. The “MIC E. coli” value in the data set with E. coli (ATCC 25922) is reported as 32. Further, the “MIC K. pneumoniae” value in data set [3] was 64. Moreover, the “MIC MRSA” value against MRSA (ATCC BAA-1556) is 16.

Consider `N=C(N)NCCC[C@@H]1NC(=O)[C@H](CCCNC(=N)N)NC(=O)[C@H](Cc2c[nH]c3ccccc23)NC(=O)[C@H](Cc2c[nH]c3ccccc23)NC(=O)[C@H](Cc2c[nH]c3ccccc23)NC(=O)[C@H](Cc2c[nH]c3ccccc23)NC(=O)[C@H](CCCNC(=N)N)NC1=O` [3b, [R3W4]] (cyclo(RRRWWWW); ring closure inferred), for which, in data set [1], the “MIC P. aeruginosa” value worked out at 256. In addition, in data set [2], the HC50 came to 105 µg/mL. The “MIC E. coli” value against E. coli (ATCC 25922) is on record as 32. Besides, the “MIC K. pneumoniae” value in data set [3] stood at 64. For the same molecule, in the data set on MRSA (ATCC BAA-1556), the “MIC MRSA” value turned out to be 8.

`N=C(N)NCCC[C@@H]1NC(=O)[C@H](CCCNC(=N)N)NC(=O)[C@H](Cc2c[nH]c3ccccc23)NC(=O)[C@H](Cc2c[nH]c3ccccc23)NC(=O)[C@H](Cc2c[nH]c3ccccc23)NC(=O)[C@H](Cc2c[nH]c3ccccc23)NC(=O)[C@H](Cc2c[nH]c3ccccc23)NC(=O)[C@H](CCCNC(=N)N)NC1=O` [3c, [R3W5]] (cyclo(RRRWWWWW); ring closure inferred): the HC50 in data set [2] was 80 µg/mL.

On to `N=C(N)NCCC[C@@H]1NC(=O)[C@H](CCCNC(=N)N)NC(=O)[C@H](Cc2c[nH]c3ccccc23)NC(=O)[C@H](Cc2c[nH]c3ccccc23)NC(=O)[C@H](Cc2c[nH]c3ccccc23)NC(=O)[C@H](Cc2c[nH]c3ccccc23)NC(=O)[C@H](Cc2c[nH]c3ccccc23)NC(=O)[C@H](Cc2c[nH]c3ccccc23)NC(=O)[C@H](CCCNC(=N)N)NC1=O` [3d, [R3W6]], for which the “MIC P. aeruginosa” value in data set [1] worked out at 256. In data set [2], this molecule registered an HC50 of 65 µg/mL. The “MIC E. coli” value in the data set with E. coli (ATCC 25922) is 64. The “MIC K. pneumoniae” value in data set [3] is recorded as 128. Also, in the data set with MRSA (ATCC BAA-1556), the “MIC MRSA” value is 64.

In the case of `N=C(N)NCCC[C@@H]1NC(=O)[C@H](CCCNC(=N)N)NC(=O)[C@H](Cc2c[nH]c3ccccc23)NC(=O)[C@H](Cc2c[nH]c3ccccc23)NC(=O)[C@H](Cc2c[nH]c3ccccc23)NC(=O)[C@H](Cc2c[nH]c3ccccc23)NC(=O)[C@H](Cc2c[nH]c3ccccc23)NC(=O)[C@H](Cc2c[nH]c3ccccc23)NC(=O)[C@H](Cc2c[nH]c3ccccc23)NC(=O)[C@H](CCCNC(=N)N)NC1=O` [3e, [R3W7]] (cyclo(RRRWWWWWWW)), the “MIC P. aeruginosa” value in data set [1] is 256. In data set [2], this molecule displayed an HC50 of 60 µg/mL. The “MIC E. coli” value in the data set with E. coli (ATCC 25922) is listed as 256. For the same molecule, the “MIC K. pneumoniae” value in data set [3] worked out at 64. The “MIC MRSA” value with MRSA (ATCC BAA-1556) is 256.

For `N=C(N)NCCC[C@H]1NC(=O)[C@H](Cc2c[nH]c3ccccc23)NC(=O)[C@H](Cc2c[nH]c3ccccc23)NC(=O)[C@H](Cc2c[nH]c3ccccc23)NC(=O)[C@H](Cc2c[nH]c3ccccc23)NC(=O)[C@H](Cc2c[nH]c3ccccc23)NC(=O)[C@H](Cc2c[nH]c3ccccc23)NC(=O)[C@H](Cc2c[nH]c3ccccc23)NC(=O)[C@@H](CCCNC(=N)N)NC(=O)[C@@H](CCCNC(=N)N)NC1=O` [3f, [dR3W7]] (cyclo([dR][dR][dR]WWWWWWW)), in data set [1], the “MIC P. aeruginosa” value is 256. For the same molecule, the “MIC E. coli” value against E. coli (ATCC 25922) turned out to be 256. For the same molecule, the “MIC K. pneumoniae” value in data set [3] is recorded as 256. Also, in the data set on MRSA (ATCC BAA-1556), the “MIC MRSA” value was determined as 64.

Consider `N=C(N)NCCC[C@H]1NC(=O)[C@H](Cc2c[nH]c3ccccc23)NC(=O)[C@H](Cc2c[nH]c3ccccc23)NC(=O)[C@H](Cc2c[nH]c3ccccc23)NC(=O)[C@H](Cc2c[nH]c3ccccc23)NC(=O)[C@@H](CCCNC(=N)N)NC(=O)[C@@H](CCCNC(=N)N)NC(=O)[C@@H](CCCNC(=N)N)NC1=O` [4a, [dR4W4]] (cyclo([dR][dR][dR][dR]WWWW)), for which the “MIC P. aeruginosa” value in data set [1] turned out to be 64. In data set [2], this molecule came in with an HC50 of 110 µg/mL. Moreover, the “MIC E. coli” value in the data set on E. coli (ATCC 25922) is reported as 16. For the same molecule, in data set [3], the “MIC K. pneumoniae” value amounted to 64. Also, the “MIC MRSA” value with MRSA (ATCC BAA-1556) was 8.

For the molecule `N=C(N)NCCC[C@@H]1NC(=O)[C@H](CCCNC(=N)N)NC(=O)[C@H](CCCNC(=N)N)NC(=O)[C@H](Cc2c[nH]c3ccccc23)NC(=O)[C@H](Cc2c[nH]c3ccccc23)NC(=O)[C@H](Cc2c[nH]c3ccccc23)NC(=O)[C@H](Cc2c[nH]c3ccccc23)NC(=O)[C@H](Cc2c[nH]c3ccccc23)NC(=O)[C@H](CCCNC(=N)N)NC1=O` [4b, [R4W5]], the “MIC P. aeruginosa” value in data set [1] came out at 128. In data set [2], this molecule displayed an HC50 of 100 µg/mL. For the same molecule, in the data set on E. coli (ATCC 25922), the “MIC E. coli” value was determined as 64. For the same molecule, the “MIC K. pneumoniae” value in data set [3] is listed as 128. Further, the “MIC MRSA” value against MRSA (ATCC BAA-1556) is 8.

`N=C(N)NCCC[C@@H]1NC(=O)[C@H](CCCNC(=N)N)NC(=O)[C@H](CCCNC(=N)N)NC(=O)[C@H](Cc2c[nH]c3ccccc23)NC(=O)[C@H](Cc2c[nH]c3ccccc23)NC(=O)[C@H](Cc2c[nH]c3ccccc23)NC(=O)[C@H](Cc2c[nH]c3ccccc23)NC(=O)[C@H](Cc2c[nH]c3ccccc23)NC(=O)[C@H](Cc2c[nH]c3ccccc23)NC(=O)[C@H](CCCNC(=N)N)NC1=O` [4c, [R4W6]]: in data set [1], the “MIC P. aeruginosa” value is recorded as 128. The HC50 in data set [2] was 75 µg/mL. Also, in the data set with E. coli (ATCC 25922), the “MIC E. coli” value is 128. Besides, the “MIC K. pneumoniae” value in data set [3] is reported as 256. The “MIC MRSA” value in the data set with MRSA (ATCC BAA-1556) turned out to be 128.

On to `N=C(N)NCCC[C@@H]1NC(=O)[C@H](CCCNC(=N)N)NC(=O)[C@H](CCCNC(=N)N)NC(=O)[C@H](Cc2c[nH]c3ccccc23)NC(=O)[C@H](Cc2c[nH]c3ccccc23)NC(=O)[C@H](Cc2c[nH]c3ccccc23)NC(=O)[C@H](Cc2c[nH]c3ccccc23)NC(=O)[C@H](Cc2c[nH]c3ccccc23)NC(=O)[C@H](Cc2c[nH]c3ccccc23)NC(=O)[C@H](Cc2c[nH]c3ccccc23)NC(=O)[C@H](CCCNC(=N)N)NC1=O` [4d, [R4W7]] (cyclo(RRRRWWWWWWW)), for which, in data set [1], the “MIC P. aeruginosa” value was above 256. The molecule also returned an HC50 in data set [2] of 60 µg/mL. The “MIC E. coli” value in the data set with E. coli (ATCC 25922) is recorded as 128. In addition, in data set [3], the “MIC K. pneumoniae” value came to 256. The “MIC MRSA” value against MRSA (ATCC BAA-1556) turned out to be 256.

As for `N=C(N)NCCC[C@@H]1NC(=O)[C@H](CCCNC(=N)N)NC(=O)[C@H](CCCNC(=N)N)NC(=O)[C@H](CCCNC(=N)N)NC(=O)[C@H](Cc2c[nH]c3ccccc23)NC(=O)[C@H](Cc2c[nH]c3ccccc23)NC(=O)[C@H](Cc2c[nH]c3ccccc23)NC(=O)[C@H](Cc2c[nH]c3ccccc23)NC(=O)[C@H](Cc2c[nH]c3ccccc23)NC(=O)[C@H](CCCNC(=N)N)NC(=O)[C@H](CCCNC(=N)N)NC(=O)[C@H](CCCNC(=N)N)NC1=O` [7b, [R7W5]] (cyclo(RRRRRRRWWWWW)), the HC50 in data set [2] was 175 µg/mL. In the data set on E. coli (ATCC 25922), the “MIC E. coli” value was determined as 64. Moreover, the “MIC MRSA” value with MRSA (ATCC BAA-1556) is listed as 8.

Regarding `N=C(N)NCCC[C@@H]1NC(=O)[C@H](CCCNC(=N)N)NC(=O)[C@H](CCCNC(=N)N)NC(=O)[C@H](CCCNC(=N)N)NC(=O)[C@H](Cc2c[nH]c3ccccc23)NC(=O)[C@H](Cc2c[nH]c3ccccc23)NC(=O)[C@H](Cc2c[nH]c3ccccc23)NC(=O)[C@H](Cc2c[nH]c3ccccc23)NC(=O)[C@H](Cc2c[nH]c3ccccc23)NC(=O)[C@H](Cc2c[nH]c3ccccc23)NC(=O)[C@H](CCCNC(=N)N)NC(=O)[C@H](CCCNC(=N)N)NC(=O)[C@H](CCCNC(=N)N)NC1=O` [7c, [R7W6]] (cyclo(RRRRRRRWWWWWW)), the HC50 in data set [2] came out at 170 µg/mL. Further, the “MIC E. coli” value in the data set with E. coli (ATCC 25922) worked out at 64. Further, the “MIC MRSA” value against MRSA (ATCC BAA-1556) is given as 32.

`N=C(N)NCCC[C@@H]1NC(=O)[C@H](CCCNC(=N)N)NC(=O)[C@H](CCCNC(=N)N)NC(=O)[C@H](CCCNC(=N)N)NC(=O)[C@H](Cc2c[nH]c3ccccc23)NC(=O)[C@H](Cc2c[nH]c3ccccc23)NC(=O)[C@H](Cc2c[nH]c3ccccc23)NC(=O)[C@H](Cc2c[nH]c3ccccc23)NC(=O)[C@H](Cc2c[nH]c3ccccc23)NC(=O)[C@H](Cc2c[nH]c3ccccc23)NC(=O)[C@H](Cc2c[nH]c3ccccc23)NC(=O)[C@H](CCCNC(=N)N)NC(=O)[C@H](CCCNC(=N)N)NC(=O)[C@H](CCCNC(=N)N)NC1=O` [7d, [R7W7]] (cyclo(RRRRRRRWWWWWWW)): the HC50 in data set [2] worked out at 140 µg/mL. In the data set on E. coli (ATCC 25922), the “MIC E. coli” value worked out at 32. The “MIC MRSA” value with MRSA (ATCC BAA-1556) was 16.
